Key:
Ips engravers beetles = experiment: Single-tree protection study (Example 2): Ips attack, tree mortality and gallery construction on standing loblolly pine; type: in vivo; conditions: for Mean # of Egg Galleries Total Number / Mean # of Egg Galleries With Brood No. / Mean # of Egg Galleries Without Brood No. / Mean Length of Egg Galleries Total Length / Mean Length of Egg Galleries With Brood cm / Mean Length of Egg Galleries Without Brood cm: bolts cut after tree mortality or at the end of the trial; for Mean # of Nuptial Chambers With Egg Galleries % of Total / Mean # of Nuptial Chambers Without Egg Galleries % of Total / Mean # of Nuptial Chambers Without Egg Galleries No. / Mean # of Nuptial Chambers with Egg Galleries No. / Mean Total # of Nuptial Chambers: bolts cut after tree mortality or the end of the trial
Experimental: (§1) Two 20-year-old, recently thinned loblolly pine plantations were selected on land owned by Temple-Inland Forest Products Corporation about 5 km south of Wells (Angelina County), Tex. Trees in one plantation were injected for use in a bolt study (Example 1). Trees in a 0.2 ha section of the second plantation were injected as part of a single-tree protection study (Example 2). A staging area also was set up in the second plantation where bolts from the first plantation were exposed to bark beetles and wood borers.
Loblolly pine, 15-20 cm DBH, were selected in the second plantation in March 2004. Each treatment (the same as those used in Example 1) was injected into four cardinal points about 0.3 m above the ground on each of 6 trees in April (16th-23rd) using the Arborjet Tree IV™ system. After 5 weeks post-injection (May 28), frills were cut with a hatchet into the sapwood between the injection points near the base of the tree. A cellulose sponge was inserted into each cut and loaded with 10 ml of a 4:1 mix of sodium N-methyldithiocarbamate (MS) (Woodfume®; Osmose, Inc., Buffalo, N.Y.) plus dimethyl sulfoxide (DMSO) (Aldrich Chemical) (Roton 1987, Strom et al. 2004). This method reduces resin to near zero in 1-2 weeks. The intent was to stress the tree and make it susceptible to attack by bark beetles without killing it.
Pheromone packets containing racemic ipsdienol + lanerione, ipsenol or cis-verbenol were attached (June 7) atop 3 m stakes evenly spaced in between and around the study trees to encourage attack by the three Ips engraver species. […] Thus, ipsdienol and cis-verbenol pheromone baits were deployed on all stakes on June 17th. The baits were changed every 4 weeks.
A clear panel of acetate (10 cm wide by 25 cm long) coated with Stickem Special® was attached 2 m high on standing trees after deployment of pheromone baits to monitor arrival of bark beetles. The traps were left in place for two weeks.
Three weeks after pheromone deployment (June 28), each tree was evaluated by marking a 30 cm section of bole at a height of 3 m. All visible Ips attacks and cerambycid egg niches were counted within the marked area. The number of trees with fading crowns also was recorded. Thereafter, the trees were evaluated weekly for crown fading. When mortality did occur, the trees were felled and two bolts taken and evaluated for attack success and gallery length as described in Example 1. All remaining trees were felled 66 days (Aug. 9) after initial pheromone deployment when no additional trees had died for 3 weeks. Treatment efficacy was determined by comparing tree survival, beetle attacks and egg gallery length on treated and untreated bolts. As before, data were transformed and analyzed by GLM and the Fisher's Protected LSD test using the Statview statistical program.

[1] = test system: pine wood nematode, Bursaphelenchus xylophilis; conditions: cited from earlier work
Cerambycid larvae = experiment: Bolt study (Example 1): cerambycid larval feeding in loblolly pine bolts cut after trunk injection; type: in vivo; conditions: for reduction of cerambycid feeding damage: May
Experimental: as §1
Seventy-five loblolly pine trees, Pinus taeda L., 15-20 cm diameter at breast height (DBH), were selected in March 2004. Each treatment was injected into four cardinal points about 0.3 m above the ground on each of 15 trees in April (16th-23rd) using the new Arborjet Tree IV™ microinfusion system (Arborjet, Inc. Woburn, Mass.). The treatments included: • 1) Emamectin benzoate (Denim®, 1.92% ai, Syngenta Crop Science)—Denim® was mixed 1:1 with methanol and applied at 18.6 ml solution per inch of tree diameter at breast height (DBH) (=0.2 g active per inch DBH). • 2) Check (untreated)
After 1 (May 24), 3 (July 19) and 5 (September) months post-injection, 5 trees of each treatment were felled and two 1.5 m long bolts were removed from the 3 m and 8 m heights of the bole. The bolts were transported to a nearby plantation that was recently thinned and contained fresh slash material. Each bolt was placed about 1 m apart on discarded, dry pine bolts to maximize surface area available for colonization as well as to discourage predation by ground and litter-inhabiting organisms. To facilitate timely bark beetle colonization, packets of bark beetle pheromones (racemic ipsdienol + lanerione combination, ipsenol or cis-verbenol; Phero Tech, Inc., Delta, BC, Canada) were attached separately to three 1 m stakes evenly spaced in the study area. Racemic ipsdienol and cis-verbenol were used with the second and third series of bolts deployed in July and September, respectively. The packets were removed after 2 weeks when signs of attacks (boring dust) were observed on most test bolts, signaling that naturally-produced pheromones were present.
Each series of bolts were retrieved about 3 weeks after deployment, after observing many cerambycid egg niches on the bark surface of most bolts. There was concern that if cerambycid larvae were allowed to develop too long, their feeding activity would obscure or obliterate the Ips galleries. Thus, each series of bolts were retrieved and stored temporarily in a TFS seedling cooler (˜45° F.) to slow cerambycid development until the bolts could be evaluated.
In the laboratory, two 10×50 cm strips (total=1000 cm^2) of bark were removed from each bolt. Several measurements were made relating to construction of nuptial chambers and egg galleries and development of brood: • 1) Number of unsuccessful attacks—penetration to phloem, but no egg galleries. • 2) Number of successful attacks—construction of nuptial chamber and at least one egg gallery extending from it. • 3) Number and lengths of egg galleries with brood galleries radiating from them. • 4) Number and lengths of egg galleries without brood galleries. • 5) Cerambycid activity, estimated by overlaying a 100 cm^2 grid over a portion of each bark strip and counting the number of squares overlapping area where cerambycid larvae had fed.
Treatment efficacy was determined by comparing Ips beetle attacks and egg gallery length and cerambycid feeding on treated and untreated bolts. The data were transformed by log10(x+1) to satisfy criteria for normality and homoscedasticity (Zar 1984) and analyzed by GLM and the Fishers Protected LSD test using the Statview statistical program.

In the case of “4″-deoxy-4″-N-methylamino avermectin B1a/B1b [Emamectin]”, the “Percentage of Trees With Fading Crowns” value (Ips engravers beetles; after 24 days) is reported as 0.0 a %, the “Percentage of Trees With Fading Crowns” value (Ips engravers beetles; after 32 days) is reported as 0.0 a % and the “Percentage of Trees With Fading Crowns” value (Ips engravers beetles; after 39 days) is reported as 0.0 a %. For the same substance, the “Percentage of Trees With Fading Crowns” value (Ips engravers beetles; after 46 days) was 0.0 a %, the “Percentage of Trees With Fading Crowns” value (Ips engravers beetles; after 52 days) was 0.0 a % and the “Percentage of Trees With Fading Crowns” value (Ips engravers beetles; after 66 days) was 0.0 a %. The “Mean # of Egg Galleries Total Number” value (Ips engravers beetles; bolt height 3 m) was 0.0 a, the “Mean # of Egg Galleries With Brood No.” value (Ips engravers beetles; bolt height 3 m) was 0.0 a and the “Mean # of Egg Galleries Without Brood No.” value (Ips engravers beetles; bolt height 3 m) was 0.0 a. The “Mean Length of Egg Galleries Total Length” value (Ips engravers beetles; bolt height 3 m) was 0.0 a cm, the “Mean Length of Egg Galleries With Brood cm” value (Ips engravers beetles; bolt height 3 m) was 0.0 a cm and the “Mean Length of Egg Galleries Without Brood cm” value (Ips engravers beetles; bolt height 3 m) was 0.0 a cm. For the same substance, the “Mean # of Egg Galleries Total Number” value (Ips engravers beetles; bolt height 8 m) was 0.0 a, the “Mean # of Egg Galleries With Brood No.” value (Ips engravers beetles; bolt height 8 m) was 0.0 a and the “Mean # of Egg Galleries Without Brood No.” value (Ips engravers beetles; bolt height 8 m) was 0.0 a. For the same substance, the “Mean Length of Egg Galleries Total Length” value (Ips engravers beetles; bolt height 8 m) was 0.0 a cm, the “Mean Length of Egg Galleries With Brood cm” value (Ips engravers beetles; bolt height 8 m) was 0.0 a cm and the “Mean Length of Egg Galleries Without Brood cm” value (Ips engravers beetles; bolt height 8 m) was 0.0 a cm. For the same substance, the “Mean # of Nuptial Chambers With Egg Galleries % of Total” value (Ips engravers beetles; bolt height 3 m) was 0.0%, the “Mean # of Nuptial Chambers Without Egg Galleries % of Total” value (Ips engravers beetles; bolt height 3 m) was 100.0% and the “Mean # of Nuptial Chambers Without Egg Galleries No.” value (Ips engravers beetles; bolt height 3 m) was 3.0 ab. The “Mean # of Nuptial Chambers with Egg Galleries No.” value (Ips engravers beetles; bolt height 3 m) was 0.0 a, the “Mean Total # of Nuptial Chambers” value (Ips engravers beetles; bolt height 3 m) was 3.0 a and the “Mean # of Nuptial Chambers With Egg Galleries % of Total” value (Ips engravers beetles; bolt height 8 m) was 0.0%. The “Mean # of Nuptial Chambers Without Egg Galleries % of Total” value (Ips engravers beetles; bolt height 8 m) was 100.0%, the “Mean # of Nuptial Chambers Without Egg Galleries No.” value (Ips engravers beetles; bolt height 8 m) was 1.3 ab and the “Mean # of Nuptial Chambers with Egg Galleries No.” value (Ips engravers beetles; bolt height 8 m) was 0.0 a. The “Mean Total # of Nuptial Chambers” value (Ips engravers beetles; bolt height 8 m) was 1.3 a, the “attacks on cut bolts compared to the check” value (Ips engravers beetles; cut bolts, both heights) was “significantly fewer” and the “success of attacks that did occur” value (Ips engravers beetles; cut bolts, both heights) was “completely unsuccessful”. For the same substance, the “Mean # of Attacks/0.3 Bole Section at 3 m after 24 days, Ips” value (Ips engravers beetles; standing loblolly pine, after 24 days) was 0.5 a, the “Mean # of Ips caught/Trap” value (Ips engravers beetles; standing loblolly pine, trap 2 m high) was 1.2 a and the “Ips attacks compared to checks” value (Ips engravers beetles; standing trees, at 3 m height) was “significantly fewer”. For the same substance, the “trees with fading crowns (yellowing needles)” value (Ips engravers beetles; standing trees, first evaluation) was “None”, the tree survival (Ips engravers beetles; standing trees, study discontinued after 66 days) was “all emamectin benzoate-treated trees survived” and the duration of protection ([1]; pine, against pine wood nematode and coneworm) was “more than three years”. For the same substance, the “efficacy against pine wood nematode” value ([1]; systemic activity in pine) was “highly effective”, the “Percent Phloem Area Consumed by Larvae” value (Cerambycid larvae; 1 Month Post Injection (May), bolt height 3 m) was 2.2 a % and the “Percent Phloem Area Consumed by Larvae” value (Cerambycid larvae; 1 Month Post Injection (May), bolt height 8 m) was 0.0 a %. For the same substance, the “Percent Phloem Area Consumed by Larvae” value (Cerambycid larvae; 3 Months Post Injection (July), bolt height 3 m) was 0.0 a %, the “Percent Phloem Area Consumed by Larvae” value (Cerambycid larvae; 3 Months Post Injection (July), bolt height 8 m) was 0.0 a % and the “Percent Phloem Area Consumed by Larvae” value (Cerambycid larvae; 5 Months Post Injection (September), bolt height 3 m) was 0.0 a %. The “Percent Phloem Area Consumed by Larvae” value (Cerambycid larvae; 5 Months Post Injection (September), bolt height 8 m) was 0.0 a %, the “cerambycid larval feeding or development” value (Cerambycid larvae; July and September series, bolts from 3 m) was “no larval feeding or development” and the “reduction of cerambycid feeding damage” value (Cerambycid larvae; bolts from 3 m) was 93%. For the same substance, the “reduction of cerambycid feeding damage” value (Cerambycid larvae; bolts from 8 m) was 100%.

Source: patent US8633167B2, “Method for the protection of trees” (Syngenta Crop Protection LLC, priority 2006, dated 2014)
